# According to patent US20250262195A1, “METHOD TO PREVENT AND TREAT DIABETIC RETINOPATHY BY CALCIUM CHANNEL BLOCKERS, ANGIOTENSIN CONVERTING ENZYME INHIBITORS, AND ANGIOTENSIN RECEPTOR BLOCKERS” (priority 2022, published 2025):
# Experiments:
# Format in all cases: in vivo, human
# [1] = test system: patients with diabetic retinopathy; assay: Experimental use: vasodilators applied to patients' eyes, progression monitored at follow-up appointments; settings: applied to the eye; based on prior experience and observation during treatment of patients
# [2] = test system: patient diagnosed with diabetic retinopathy; assay: Treatment of a patient diagnosed with diabetic retinopathy, one eye treated and the other left untreated
# Excerpt: A patient is diagnosed with diabetic retinopathy. A composition comprising the calcium channel blocker nifedipine is directly applied to the vitreous surface of one eye while the other eye is left untreated. […] A patient is diagnosed with diabetic retinopathy. A composition comprising the ACE inhibitor enalapril is directly applied to the vitreous surface of one eye while the other eye is left untreated. […] A patient is diagnosed with diabetic retinopathy. A composition comprising the angiotensin receptor blocker losartan is directly applied to the vitreous surface of one eye while the other eye is left untreated. […] A patient is diagnosed with diabetic retinopathy. A composition comprising the calcium channel blocker nifedipine is applied to the eye by intravitreal or intraocular injection while the other eye is left untreated. […] A patient is diagnosed with diabetic retinopathy. A composition comprising the ACE inhibitor enalapril is applied to the eye by intravitreal or intraocular injection while the other eye is left untreated. […] A patient is diagnosed with diabetic retinopathy. A composition comprising the angiotensin receptor blocker losartan is applied to the eye by intravitreal or intraocular injection while the other eye is left untreated.
# [3] = test system: patient successfully treated for diabetic retinopathy; assay: Prevention of recurrence in a patient successfully treated for diabetic retinopathy, one eye treated and the other left untreated; settings: untreated eye shows signs of recurrence
# Excerpt: A composition comprising the calcium channel blocker nifedipine is directly applied to the vitreous surface of one eye while the other eye is left untreated. […] A composition comprising the ACE inhibitor enalapril is directly applied to the vitreous surface of one eye while the other eye is left untreated. […] A composition comprising the angiotensin receptor blocker losartan is directly applied to the vitreous surface of one eye while the other eye is left untreated. […] A composition comprising the calcium channel blocker nifedipine is applied to the eye by intravitreal or intraocular injection while the other eye is left untreated. […] A composition comprising the ACE inhibitor enalapril is applied to the eye by intravitreal or intraocular injection while the other eye is left untreated. […] A composition comprising the angiotensin receptor blocker losartan is applied to the eye by intravitreal or intraocular injection while the other eye is left untreated.
# [4] = test system: patient with diabetic retinopathy; assay: Topical ramiprilat formulation to the eye of a patient with diabetic retinopathy
# Protocol: In this example, a patient with diabetic retinopathy is administered a topical formulation comprising ramiprilat to the eye. […] The diabetic retinopathy is therefore treated by the topical formulation.
# [5] = composition applied by intravitreal or intraocular injection
# [6] = composition directly applied to the vitreous surface of one eye
Compound,effectiveness for the treatment of diabetic retinopathy or its symptoms [1],"symptoms of diabetic retinopathy, treated eye compared to untreated eye [2, 5]","symptoms of diabetic retinopathy, treated eye compared to untreated eye [2, 6]","development (recurrence) of diabetic retinopathy in the treated eye [3, 5]","development (recurrence) of diabetic retinopathy in the treated eye [3, 6]",also measured
CCCC(=O)OCOC(=O)C1=C(C)NC(C)=C(C(=O)OC)C1c1cccc(Cl)c1Cl (stereo not drawn) [clevidipine],effective,,,,,
CCCCc1nc(Cl)c(CO)n1Cc1ccc(-c2ccccc2-c2nn[nH]n2)cc1 [losartan],,reduced symptoms of diabetic retinopathy,reduced symptoms of diabetic retinopathy,not develop diabetic retinopathy,not develop diabetic retinopathy,
CCOC(=O)[C@H](CCc1ccccc1)N[C@@H](C)C(=O)N1CCC[C@H]1C(=O)O [enalapril],,reduced symptoms of diabetic retinopathy,reduced symptoms of diabetic retinopathy,not develop diabetic retinopathy,not develop diabetic retinopathy,
Ramiprilat,,,,,,capillary blood supply to the eye [4]: increases the capillary blood supply; capillary networks in the eye [4]: grows capillary networks; diabetic retinopathy outcome [4]: treated; intraocular pressure [4]: reduction in intraocular pressure; optic nerve [4]: repair to the optic nerve
COC(=O)C1=C(C)NC(C)=C(C(=O)OC(C)C)C1c1cccc2nonc12 (stereo not drawn) [isradipine],effective,,,,,
